Source: publication PMC10252594 (Cancers, 2023)

Test system: LAPC-4 xenografts
Assay: Fatty acid determination (GC-FID) in LAPC-4 xenograft experiment
Type: in vivo, mice
Conditions: 10 mg/kg PO
Experimental: […] The fatty acid profile was next determined by gas chromatography (GC), coupled with a flame ionization detector (FID), using phosphatidylcholine C21:0 (Avanti Polar Lipids) as an internal standard. The GC model 5890 was from Agilent Technologies (Mississauga, ON, Canada). The capillary column used was a HP-88 (100 m × 0.25 mm, […], Agilent Technologies), and the carrier gas was helium at 1.5 mL/min. A total of 56 fatty acids were identified according to their retention time, using fatty acid mixtures as standards.

[1] = LAPC-4 tumor, 28 days (RM-581 group per Table S1)
[2] = LAPC-4 tumor, 28 days, Table S1

`C#C[C@]1(O)CC[C@H]2[C@@H]3CCc4cc(OC)c(N5CCN(C(=O)[C@@H]6CCCN6C(=O)c6ccc7ccccc7n6)CC5)cc4[C@H]3CC[C@@]21C` [RM-581] was tested, and the “S-FA, liver” value (28 days) was 12.5 mg/g, the “S-FA, plasma” value (28 days) was 1.10 µg/mL and the “S-FA, plasma, % vs CTL” value (28 days) was “+2.8%”. For the same compound, the “S-FA, tumor” value (28 days) was 8.15 mg/g, the “T-FA, liver” value (28 days) was 34.5 mg/g and the “T-FA, liver, % vs CTL” value (28 days) was “+19.8%”. The “T-FA, plasma” value (28 days) was 3.71 µg/mL, the “T-FA, plasma, % vs CTL” value (28 days) was “+1.6%” and the “T-FA, tumor” value (28 days) was 24.5 mg/g. For the same compound, the “U-FA, liver” value (28 days) was 21.9 mg/g, the “U-FA, plasma” value (28 days) was 2.59 µg/mL and the “U-FA, plasma, % vs CTL” value (28 days) was “+1.6%”. The “U-FA, tumor” value (28 days) was 16.0 mg/g, the “Adrenic acid-1 (7c10c13c16c) 22:4, % vs CTL” value (LAPC-4 tumor, 28 days) was “+8.6%” and the “Adrenic acid-1 (7c10c13c16c) 22:4, FA RM-581” value (LAPC-4 tumor, 28 days) was 0.380 mg/g. For the same compound, the “Adrenic acid-2 (4c7c10c13c16c) 22:5, % vs CTL” value (LAPC-4 tumor, 28 days) was −12%, the “Adrenic acid-2 (4c7c10c13c16c) 22:5, FA RM-581” value (LAPC-4 tumor, 28 days) was 0.260 mg/g and the “Alpha-linolenic acid (9c12c15c) 18:3, FA RM-581” value (LAPC-4 tumor, 28 days) was 0.230 mg/g. The “Arachidonic (5c8c11c14c) 20:4, % vs CTL” value (LAPC-4 tumor, 28 days) was −2.1%, the “Arachidonic (5c8c11c14c) 20:4, FA RM-581” value (LAPC-4 tumor, 28 days) was 2.150 mg/g and the “Cervonic acid 22:6, % vs CTL” value (LAPC-4 tumor, 28 days) was 0%. The “Cervonic acid 22:6, FA RM-581” value (LAPC-4 tumor, 28 days) was 0.530 mg/g, the “Dihomo-γ-linolenic acid (8c11c14c) 20:3, FA RM-581” value (LAPC-4 tumor, 28 days) was 0.580 mg/g and the “Dimethoxyhexadecanoic acid 16:0, % vs CTL” value (LAPC-4 tumor, 28 days) was 0%. For the same compound, the “Dimethoxyhexadecanoic acid 16:0, FA RM-581” value (LAPC-4 tumor, 28 days) was 0.170 mg/g, the “Docosapentaenoic acid (7c10c13c16c19c) 22:5, % vs CTL” value (LAPC-4 tumor, 28 days) was “+17%” and the “Docosapentaenoic acid (7c10c13c16c19c) 22:5, FA RM-581” value (LAPC-4 tumor, 28 days) was 0.140 mg/g. The “Lignoceric acid 24:0, % vs CTL” value (LAPC-4 tumor, 28 days) was “+23%”, the “Lignoceric acid 24:0, FA RM-581” value (LAPC-4 tumor, 28 days) was 0.160 mg/g and the “Linoleic acid (9c12c) 18:2, FA RM-581” value (LAPC-4 tumor, 28 days) was 4.435 mg/g. The “Myristic acid 14:0, FA RM-581” value (LAPC-4 tumor, 28 days) was 0.275 mg/g, the “Nervonic acid (15c) 24:1, % vs CTL” value (LAPC-4 tumor, 28 days) was “+18%” and the “Nervonic acid (15c) 24:1, FA RM-581” value (LAPC-4 tumor, 28 days) was 0.130 mg/g. For the same compound, the “Oleic acid (9c) 18:1, FA RM-581” value (LAPC-4 tumor, 28 days) was 4.920 mg/g, the “Palmitic acid 16:0, FA RM-581” value (LAPC-4 tumor, 28 days) was 5.095 mg/g and the “Palmitoleic acid (9c) 16:1, FA RM-581” value (LAPC-4 tumor, 28 days) was 1.035 mg/g. For the same compound, the “Stearic acid 18:0, % vs CTL” value (LAPC-4 tumor, 28 days) was “+3.5%”, the “Stearic acid 18:0, FA RM-581” value (LAPC-4 tumor, 28 days) was 2.355 mg/g and the “Vaccenic acid (11c) 18:1, % vs CTL” value (LAPC-4 tumor, 28 days) was “+5.3%”. The “Vaccenic acid (11c) 18:1, FA RM-581” value (LAPC-4 tumor, 28 days) was 0.690 mg/g, the “Adrenic acid-1 (7c10c13c16c) 22:4, % of Total FA” value [1] was 1.54% and the “Adrenic acid-2 (4c7c10c13c16c) 22:5, % of Total FA” value [1] was 1.07%. For the same compound, the “Alpha-linolenic acid (9c12c15c) 18:3, % of Total FA” value [1] was 0.94%, the “Arachidonic (5c8c11c14c) 20:4, % of Total FA” value [1] was 8.77% and the “Cervonic acid 22:6, % of Total FA” value [1] was 2.18%. The “Dihomo-γ-linolenic acid (8c11c14c) 20:3, % of Total FA” value [1] was 2.35%, the “Dimethoxyhexadecanoic acid 16:0, % of Total FA” value [1] was 0.68% and the “Docosapentaenoic acid (7c10c13c16c19c) 22:5, % of Total FA” value [1] was 0.57%. The “Lignoceric acid 24:0, % of Total FA” value [1] was 0.65%, the “Linoleic acid (9c12c) 18:2, % of Total FA” value [1] was 18.1% and the “Myristic acid 14:0, % of Total FA” value [1] was 1.12%. The “Nervonic acid (15c) 24:1, % of Total FA” value [1] was 0.52%, the “Oleic acid (9c) 18:1, % of Total FA” value [1] was 20.1% and the “Palmitic acid 16:0, % of Total FA” value [1] was 20.8%. The “Palmitoleic acid (9c) 16:1, % of Total FA” value [1] was 4.23%, the “Stearic acid 18:0, % of Total FA” value [1] was 9.61% and the “Vaccenic acid (11c) 18:1, % of Total FA” value [1] was 2.82%. The “Arachidic acid 20:0, FA RM-581” value [2] was 0.05 mg/g, the “Arachidic acid 20:0, FA RM-581 % of total” value [2] was 0.20% and the “Behenic acid 22:0, FA RM-581” value [2] was 0.09 mg/g. For the same compound, the “Behenic acid 22:0, FA RM-581 % of total” value [2] was 0.35%, the “Caproic acid 10:0, FA RM-581” value [2] was 0 mg/g and the “Caproic acid 10:0, FA RM-581 % of total” value [2] was 0.02%. The “Caprylic acid 8:0, FA RM-581” value [2] was 0 mg/g, the “Caprylic acid 8:0, FA RM-581 % of total” value [2] was 0% and the “Dimethoxyoctadecanoic acid 18:0, FA RM-581” value [2] was 0.09 mg/g. For the same compound, the “Dimethoxyoctadecanoic acid 18:0, FA RM-581 % of total” value [2] was 0.38%, the “Dimethoxyoctadecenoic acid (9c) w9 18:1, FA RM-581” value [2] was 0.07 mg/g and the “Dimethoxyoctadecenoic acid (9c) w9 18:1, FA RM-581 % of total” value [2] was 0.29%. For the same compound, the “Elaidic acid (9t) w9 18:1, FA RM-581” value [2] was 0 mg/g and the “Elaidic acid (9t) w9 18:1, FA RM-581 % of total” value [2] was 0%.
